From patent US12636299B2, “Terpenoid derivatives, pharmaceutical preparations containing these derivatives and their use in neuroprotection” (UNIVERZITA PALACKEHO V OLOMOUCI, priority 2020, dated 2026)

How the values were obtained:
[1] = test system: superoxide radical formation; experiment: Oxidative stress (superoxide radical formation, DHE) in 3NPA-induced model on SH-SY5Y; assay type: cell-based, human; settings: 20 mM 3NPA versus DMSO control
Description: Similarly, to previous assay, cells grown on 96-multiwell plates at density 20000 cells per well underwent differentiation and treatment procedure with 3-nitropropionic acid (3NPA) in this model. After 24 hours of co-treatment with 20 mM 3NPA, superoxide radical's formation as a marker of oxidative stress was quantified by dihydroethidium according to Kim et al. (2017, J. Med. Food, 20, 140-151). Briefly, neuron-like SH-SY5Y cells were centrifuged at 500 g for 5 min and 30 s, then media were replaced by 10 μM DHE PBS solution and kept at room temperature for 30 min. After that, DHE was read at 500 nm/580 nm (excitation/emission) by Infinite M200 Pro (Tecan) microplate reader. DHE is cell permeable dye which is selective for superoxide radical detection. Overall oxidative stress achieved by 20 mM 3NPA was consider as 100% and thus the reduction in superoxide radical's formation (OS reducing effect) was determined. As shown in Table 6 and FIG. 2, 20 mM 3NPA induced 2.7-fold increase in superoxide radical's formation.

[2] = test system: astrocyte A-172 cells; experiment: 3NPA-induced model of Huntington's disease, astrocyte A-172 cells; assay type: cell-based, human; settings: difference to 10 mM 3NPA, 48 h
Description: Before application of toxin 3-nitropropionic acid (3NPA) for mimicking Huntington's disease, the 3NPA was dissolved in water and neutralized by sodium hydroxide. SH-SY5Y cells were seeded in the same density and differentiated by the procedure shown above. Astrocyte cells A-172 were also seeded as described in previous section. Both cell lines were co-treated by 3NPA (20 mM for SH-SY5Y cells, […]) and tested compounds at 0.1, 1 and 10 μM concentration for 48 h.

[3] = test system: human neuroblastoma cell line SH-SY5Y; experiment: Viability of differentiated SH-SY5Y in salsolinol-induced model of PD (Calcein AM); assay type: cell-based; settings: 800 μM salsolinol alone, 24 hours
Description: Similarly, as in previous “Safety test”, the SH-SY5Y cells were seeded at density 7000 cells/well. After 48 h differentiation, old 1% DMEM/F12 media was replaced by fresh media containing 800 μM salsolinol (SAL) and tested compounds in 0.1, 1 and 10 μM concentrations. N-acetylcystein were chosen as positive control. After 24 hours, the cell viability was measured by Calcein AM viability assay. The values in Table 2 show % of viability of all tested compounds relative to control. The control (medium with DMSO, <0.1% (v/v)) was postulated as 100% viability (see the first line of the table), while the SAL exposure lead to decrease of viability to 65.4±0.97%.

[4] = test system: caspase-3,7 activity; experiment: Caspase-3,7 activity in salsolinol-induced model of PD on SH-SY5Y (Ac-DEVD-AMC); assay type: cell-based, human; settings: 800 μM SAL versus DMSO control
Description: Similarly, as shown in previous assay, cells grew on 96 multiwell plates at density 20000 cells per well underwent differentiation and treatment procedure for salsolinol model. After 24 hour co-treatment with salsolinol, caspase-3,7 (casp-3,7) activity as marker of apoptosis was quantified by its substrate Ac-DEVD-AMC according to Carrasco et al. (2003, BioTechniques, 34, 1064-1067). In this model, overall casp-3,7 activity induced by 800 μM SAL was consider as 100% and thus the reduction in casp-3,7 was observed after treatment with the protective terpenoid derivatives. As shown in Table 4 and FIG. 2, 800 μM SAL induced 2.9-fold increase.

O=C(O)CC[N+](=O)[O-] [Compound 3NPA, 3-nitropropionic acid, reference compound]
increase in superoxide radical's formation [1]: 2.7 fold

O=C(O)CCCC[C@@H]1CCSS1 [R-LA, R-lipoic acid, reference compound]
Astro-protective effect (% of control) ([2]; A-172, column head 0.5 μM (positive controls)): N/A (N/A = no protection) | Astro-protective effect (% of control) ([2]; A-172, column head 5 μM (positive controls)): 13.27 % of control | Astro-protective effect (% of control) ([2]; A-172, column head 50 μM (positive controls)): 14.87 % of control

C[C@@H]1NCCc2cc(O)c(O)cc21 [SAL, salsolinol, reference compound]
viability relative to DMSO control after SAL exposure [3]: 65.4±0.97% | increase of caspase-3,7 activity [4]: 2.9 fold
